# “And” between values parts separate entries of the source, which are not always exact repeats. Equal entries are not always repeated. Where two headings read alike, the source gives them in different places.
# Experiments:
# [1] = tested on: E. coli NDm-1; test: Confocal microscopy of TAMRA-conjugated peptide; type: cell-based; settings: 2.5 μM peptide, 30 minutes, FIG. 8
# Method: E. coli NDm-1 was diluted when it reached OD600=0.5. The microorganism was treated with 2.5 μM of the peptide in a 37° C. incubator for 30 minutes. LK-L12P was used as a positive control.
# [2] = tested on: Escherichia coli (ATCC 25922); settings: peptide alone; peptide concentration required to inhibit growth by 20% (so in the source)
# Method: (§1) The N-terminus of the peptides were acetylated and the C-terminus was amidated. The kinked structure can rapidly reduce the alpha-helical content, thereby greatly reducing the toxicity of the peptide against host cells. In addition, because of the potential to show specificity for the Gram-negative bacterial membrane, Pro-mutants were prepared by site-directed mutagenesis. Using the prepared peptides, their MIC for the Gram-negative bacterium E. coli and the Gram-positive bacterium S. aureus and their hemolytic activity for host cells were examined (Table 1).
# (§2) To measure the synergy between the membrane-activating peptides and the repositioning drug, a 10× compound was prepared, and then serially diluted ⅔-fold with distilled water. An MH broth (900 μl) was added to and mixed with the 10× compound (100 μl), and then 200 μL of the mixture was taken and added to a 96-well plate. E. coli cultured for one day was adjusted to 0.5 MCF using MCFarland, and diluted 10-fold, and then 10 μl of the dilution was added to each well of the plate (5×10^5 CFU/mL). After addition of the bacterial cells, plate was incubated at 37° C. for 18 hours, and then the OD value at UV-Vis (600 nm) was measured. Cell viability (%)=(OD600 of sample−OD600 of negative control)/(OD600 of positive control−OD600 of negative control)×100.
# [3] = tested on: Staphylococcus aureus (ATCC 29213); test: MIC of peptide against S. aureus; type: cell-based; settings: peptide alone
# Method: as §1
# [4] = tested on: E. coli ATCC 25922; settings: Table 4; for MIC (μM) against E. coli ATCC 25922, Peptide alone: bacterial growth <10% of control
# [5] = tested on: E. coli ATCC 25922; test: Antibiotic interaction assay (Wimley), 2/3 broth microdilution: MIC alone, MIC of combination, FICI; type: cell-based
# Method: Synergy was evaluated by an antibiotic interaction assay (Wimley, 2015) Using the method of Wimley (BBA, 2015, v. 1848(1), pp. 8-15), synergy between the membrane-activating peptide and an antibiotic was measured by an FICI value (FIG. 17). […] Thus, to accurately examine synergy, a ⅔ dilution method which observes MIC at denser concentration intervals is advantageous over a ½ dilution method in statistical terms. […] In the same manner, the MIC of an antibiotic or repositioning drug (second line) is measured. In the third line, the two compounds are mixed after putting half amount each, and the MIC thereof is measured.
# A broth microdilution technique (⅔ dilution) was used together with an MH broth. E. coli treated with an antibiotic and the peptide was incubated in a 37° C. incubator for 18 hours.
# as §2
# [6] = tested on: E. coli; test: SYTOX Green membrane penetrability by FACS; type: cell-based; settings: FIG. 6
# Method: In the second experiment, whether the peptides would have the ability to disrupt both the outer wall and inner wall of bacteria was examined. To this end, the fluorescent dye Sytox Green capable of specifically staining DNA was used, and penetrability into the microbial membrane was evaluated from the average fluorescence intensity of E. coli treated with SYTOX Green. An E. coli suspension (2×10^8 cells/mL) was incubated with the three peptides in the presence of SYTOX Green (2.5 μM) for 10 minutes, respectively. Penetrability was quantified by a (fluorescence activated cell sorter (FACS). The average fluorescence intensity of 1×10^4 gate cells was measured. Melittin (control) is a pore-forming peptide that disrupts the microbial cell membrane.
# [7] = tested on: E. coli; test: NPN fluorescence, penetration into outer membrane; type: cell-based; settings: FIG. 5
# Method: Penetration into the microbial outer membrane was measured by the fluorescence intensity of NPN-treated E. coli (λex=355 nm, λem=405 nm). An E. coli suspension (8×10^7 cells/mL) was centrifuged at 13000 rpm at 25° C. for 10 minutes, and suspended in 5 mM HEPES buffer (pH 7.2). NPN was added to the E. coli suspension to a final NPN concentration of 5 μM. The fluorescence intensity of the E. coli suspension was measured using the FL-55 fluorometer. The peptide together with 5 μM NPN was added to the E. coli suspension.
# [8] = labelled peptide + colistin + linezolid
# [9] = three compounds: labelled peptide + colistin + linezolid
compound,measurement,setting,value
LKKLLKLLKKLPKL [LK-L12P],confocal image: membrane leakage / distribution of TAMRA-labeled peptide,[1],strongly induced leakage from the inner membrane and the outer membrane
same,MIC [μM] Against E. coli,[2],2.5 µM
same,MIC [μM] Against S. aureus,[3],10 µM
LKKLLKLLKKPLKL [LK-L11P],"Fractional Inhibitory Concentration Index (FICI), Colistin & 1 μM peptide",[4],"0.83, Synergism"
same,"MIC (μM) against E. coli ATCC 25922, Peptide alone",[4],3 µM
same,MIC [μM] Against E. coli,[2],5 µM
same,MIC [μM] Against S. aureus,[3],>40 µM
colistin,lowering of MIC in combination KL-L9P/colistin/linezolid versus alone,[5],16 fold
same,MIC when the three compounds were used alone,[5]; Example 7,0.8 µM
same,"MIC (μM) against E. coli ATCC, combination of 3 compounds","[5]; KL-L9P + colistin + (S)-ibuprofen, concentration of labelled component",0.08 µM
same,"MIC (μM) against E. coli ATCC, combination of 3 compounds","[5]; KL-L9P + colistin + cloxacillin, concentration of labelled component",0.08 µM
same,"MIC (μM) against E. coli ATCC, combination of 3 compounds","[5]; KL-L9P + colistin + curcumin, concentration of labelled component",0.08 µM
same,"MIC (μM) against E. coli ATCC, combination of 3 compounds","[5]; KL-L9P + colistin + linezolid, concentration of labelled component",0.06 µM
same,"MIC (μM) against E. coli ATCC, combination of 3 compounds","[5]; KL-L9P + colistin + simvastatin, concentration of labelled component",0.06 µM
same,"MIC (μM) against E. coli ATCC, combination of two compounds","[5]; KL-L9P + colistin, concentration of labelled component",0.17 µM
same,MIC,"[5]; Tables 19-23, read-out: MIC (μM) against E. coli ATCC, 1 compound alone",1 µM
same,"MIC (μM) against E. coli ATCC, combination of two compounds","[5]; colistin + (S)-ibuprofen, concentration of labelled component",0.55 µM
same,"MIC (μM) against E. coli ATCC, combination of two compounds","[5]; colistin + cloxacillin, concentration of labelled component",0.63 µM
same,"MIC (μM) against E. coli ATCC, combination of two compounds","[5]; colistin + curcumin, concentration of labelled component",0.30 µM
same,"MIC (μM) against E. coli ATCC, combination of two compounds","[5]; colistin + linezolid, concentration of labelled component",0.60 µM
same,"MIC (μM) against E. coli ATCC, combination of two compounds","[5]; colistin + simvastatin, concentration of labelled component",0.25 µM
same,MIC of combination (μM): KL-L9P,[5]; concentration of KL-L9P in combination with labelled drug,2.40 µM
same,concentration killing E. coli in combination KL-L9P/colistin/linezolid,[5]; concentration of labelled component,50 nM
same,MIC of combination (μM): antibiotic,[5]; concentration of labelled drug in combination with KL-L9P,0.17 µM
same,MIC,"[5]; drug alone, <20% growth of positive control, read-out: MIC of antibiotic",1.63 µM
same,FICI of drug with KL-L9P,[5]; labelled drug + KL-L9P,0.26
same,FICIKL-L9P,[5]; labelled drug + KL-L9P,0.16
same,FICIantibiotic,[5]; labelled drug + KL-L9P,0.10
same,SYTOX Green DNA staining: ability to degrade or penetrate the inner wall,[6],easily stained DNA
same,"MIC (μM) against E. coli ATCC 25922, Colistin alone",[4],1.25 µM
same,NPN fluorescence: touching/loosening the outer membrane,[7],had the property of touching the outer membrane and entering the outer membrane
LKKLLKPPKKLLKL [LK-L7PL8P],MIC of combination (μM): antibiotic (colistin),[5]; colistin concentration in combination with labelled peptide,0.09 µM
same,FICI of peptide with colistin,[5]; labelled peptide + colistin,0.3 and 0.34
same,FICIPeptide,[5]; labelled peptide + colistin,0.16
same,FICIcolistin / FICIantibiotic,[5]; labelled peptide + colistin,0.18
same,FICI of peptide with colistin and linezolid,[5]; [8],0.27
same,FICIPeptide,[5]; [8],0.07
same,FICIcolistin,[5]; [8],0.09
same,FICIlinezolid,[5]; [8],0.11
same,FICI of peptide with linezolid,[5]; labelled peptide + linezolid,0.53
same,FICIPeptide,[5]; labelled peptide + linezolid,0.26
same,FICIlinezolid,[5]; labelled peptide + linezolid,0.27
same,FICI of peptide with linezolid,"[5]; labelled peptide + linezolid, listed as LK-L7P/L8P",about 0.53
same,MIC of combination (μM): linezolid,[5]; linezolid concentration in combination with labelled peptide,22 µM
same,MIC of peptide,[5]; peptide alone,53 µM
same,MIC of combination (μM): peptide,[5]; peptide concentration in combination with linezolid,14 µM
same,MIC of combination (μM): colistin,[5]; [9],0.040 µM
same,MIC of combination (μM): linezolid,[5]; [9],5.9 µM
same,MIC of combination (μM): peptide,[5]; [9],4.7 µM
same,MIC [μM] Against E. coli,[2],40 µM
same,MIC [μM] Against S. aureus,[3],>40 µM
KLLKLPKKLLKLLK [KL-L6P],"Fractional Inhibitory Concentration Index (FICI), Colistin & 1 μM peptide",[4],"0.83, Synergism"
same,"MIC (μM) against E. coli ATCC 25922, Peptide alone",[4],3 µM
same,MIC [μM] Against E. coli,[2],10 µM
same,MIC [μM] Against S. aureus,[3],>40 µM
KLPKLLKKLLKLLK [KL-L3P],MIC [μM] Against E. coli,[2],10 µM
same,MIC [μM] Against S. aureus,[3],20 µM
LKKPPKLLKKLLKL [LK-L4PL5P],MIC [μM] Against E. coli,[2],5 µM
same,MIC [μM] Against S. aureus,[3],>40 µM
LKKLLPLLKKLLKL [LK-K6P],MIC [μM] Against E. coli,[2],2.5 µM
same,MIC [μM] Against S. aureus,[3],5.0 µM
KLLKLLKKLPKLLK [KL-L10P],MIC [μM] Against E. coli,[2],2.5 µM
same,MIC [μM] Against S. aureus,[3],20 µM
LKKLLKLLKKLLKL,MIC [μM] Against E. coli,[2],20 µM
same,MIC [μM] Against S. aureus,[3],20 µM
LKKLLKLLPKLLKL [LK-K9P],MIC [μM] Against E. coli,[2],5.0 µM
same,MIC [μM] Against S. aureus,[3],5.0 µM
LKKPLKLLKKLLKL [LK-L4P],MIC [μM] Against E. coli,[2],5 µM
same,MIC [μM] Against S. aureus,[3],40 µM
CC[C@H](C)[C@H](NC(=O)CN)C(=O)NCC(=O)N[C@@H](C)C(=O)N[C@H](C(=O)N[C@@H](CC(C)C)C(=O)N[C@@H](CCCCN)C(=O)N[C@H](C(=O)N[C@@H](CC(C)C)C(=O)N[C@H](C(=O)N[C@H](C(=O)NCC(=O)N[C@@H](CC(C)C)C(=O)N1CCC[C@H]1C(=O)N[C@@H](C)C(=O)N[C@@H](CC(C)C)C(=O)N[C@H](C(=O)N[C@@H](CO)C(=O)N[C@@H](Cc1c[nH]c2ccccc12)C(=O)N[C@H](C(=O)N[C@@H](CCCCN)C(=O)N[C@@H](CCCNC(=N)N)C(=O)N[C@@H](CCCCN)C(=O)N[C@@H](CCCNC(=N)N)C(=O)N[C@@H](CCC(N)=O)C(=O)N[C@@H](CCC(N)=O)C(N)=O)[C@@H](C)CC)[C@@H](C)CC)[C@@H](C)O)[C@@H](C)O)C(C)C)C(C)C [Melittin],SYTOX Green DNA staining: ability to degrade or penetrate the inner wall,[6],have this ability
same,NPN fluorescence: touching/loosening the outer membrane,[7],high ability to increase NPN fluorescence

# Source: patent US20180339016A1 (priority 2015, published 2018)
